In ChEMBL document CHEMBL3046545, “Simple and efficient synthetic routes to bioactive s-triazinyl dithiocarbamate derivatives” (2008):

What was measured:
Format in all cases: functional
Streptococcus pyogenes = test: Antibacterial activity against Streptococcus pyogenes at […] after 24 hr by agar well diffusion assay
Escherichia coli = test: Antibacterial activity against Escherichia coli at […] after 24 hr by agar well diffusion assay
Bacillus subtilis = test: Antibacterial activity against Bacillus subtilis at […] after 24 hr by agar well diffusion assay
Aspergillus niger = test: Antifungal activity against Aspergillus niger at […] after 24 hr by agar well diffusion assay

SMILES: CC(=O)N(C(C)=O)C(=S)Sc1nc(Nc2cccc(C)c2)nc(Nc2cccc(C)c2)n1
- inhibition zone (IZ) (Streptococcus pyogenes): 11 mm
- inhibition zone (IZ) (Escherichia coli): 11 mm
- inhibition zone (IZ) (Bacillus subtilis): 12 mm
- inhibition zone (IZ) (Aspergillus niger): 14 mm

SMILES: Cc1cccc(Nc2nc(Nc3cccc(C)c3)nc(SC(=S)Nc3ccc([N+](=O)[O-])cc3)n2)c1
- inhibition zone (IZ) (Streptococcus pyogenes): 15 mm
- inhibition zone (IZ) (Escherichia coli): 13 mm
- inhibition zone (IZ) (Bacillus subtilis): 13 mm
- inhibition zone (IZ) (Aspergillus niger): 17 mm

SMILES: COc1ccc(NC(=S)Sc2nc(Nc3cccc(C)c3)nc(Nc3cccc(C)c3)n2)cc1
- inhibition zone (IZ) (Streptococcus pyogenes): 15 mm
- inhibition zone (IZ) (Escherichia coli): 12 mm
- inhibition zone (IZ) (Bacillus subtilis): 12 mm
- inhibition zone (IZ) (Aspergillus niger): 17 mm

SMILES: Cc1ccc(NC(=S)Sc2nc(Nc3cccc(C)c3)nc(Nc3cccc(C)c3)n2)cc1
- inhibition zone (IZ) (Streptococcus pyogenes): 15 mm
- inhibition zone (IZ) (Escherichia coli): 19 mm
- inhibition zone (IZ) (Bacillus subtilis): 15 mm
- inhibition zone (IZ) (Aspergillus niger): 14 mm

SMILES: COc1ccccc1NC(=S)Sc1nc(Nc2cccc(C)c2)nc(Nc2cccc(C)c2)n1
- inhibition zone (IZ) (Streptococcus pyogenes): 14 mm
- inhibition zone (IZ) (Escherichia coli): 13 mm
- inhibition zone (IZ) (Bacillus subtilis): 14 mm
- inhibition zone (IZ) (Aspergillus niger): 18 mm

SMILES: Cc1cccc(Nc2nc(Nc3cccc(C)c3)nc(SC(=S)Nc3ccccc3)n2)c1
- inhibition zone (IZ) (Streptococcus pyogenes): 15 mm
- inhibition zone (IZ) (Escherichia coli): 13 mm
- inhibition zone (IZ) (Bacillus subtilis): 12 mm
- inhibition zone (IZ) (Aspergillus niger): 17 mm

SMILES: CC1(C)S[C@@H]2[C@H](NC(=O)[C@H](N)c3ccccc3)C(=O)N2[C@H]1C(=O)O [AMPICILLIN]
- inhibition zone (IZ) (Streptococcus pyogenes): 26 mm
- inhibition zone (IZ) (Escherichia coli): 24 mm
- inhibition zone (IZ) (Bacillus subtilis): 22 mm

SMILES: Cc1cccc(NC(=S)Sc2nc(Nc3cccc(C)c3)nc(Nc3cccc(C)c3)n2)c1
- inhibition zone (IZ) (Streptococcus pyogenes): 12 mm
- inhibition zone (IZ) (Escherichia coli): 15 mm
- inhibition zone (IZ) (Bacillus subtilis): 14 mm
- inhibition zone (IZ) (Aspergillus niger): 20 mm

SMILES: Cc1cccc(Nc2nc(SC(=S)Nc3ccc([N+](=O)[O-])cc3)nc(SC(=S)Nc3ccc([N+](=O)[O-])cc3)n2)c1
- inhibition zone (IZ) (Streptococcus pyogenes): 17 mm
- inhibition zone (IZ) (Escherichia coli): 15 mm
- inhibition zone (IZ) (Bacillus subtilis): 16 mm
- inhibition zone (IZ) (Aspergillus niger): 16 mm

SMILES: Cc1cccc(Nc2nc(Nc3cccc(C)c3)nc(SC(=S)NN3CCOCC3)n2)c1
- inhibition zone (IZ) (Streptococcus pyogenes): 13 mm
- inhibition zone (IZ) (Escherichia coli): 12 mm
- inhibition zone (IZ) (Bacillus subtilis): 12 mm
- inhibition zone (IZ) (Aspergillus niger): 15 mm

SMILES: O=C(N[C@H](CO)[C@H](O)c1ccc([N+](=O)[O-])cc1)C(Cl)Cl [CHLORAMPHENICOL]
- inhibition zone (IZ) (Streptococcus pyogenes): 22 mm
- inhibition zone (IZ) (Escherichia coli): 19 mm
- inhibition zone (IZ) (Bacillus subtilis): 28 mm

SMILES: CCn1cc(C(=O)O)c(=O)c2cc(F)c(N3CCNCC3)cc21 [NORFLOXACIN]
- inhibition zone (IZ) (Streptococcus pyogenes): 26 mm
- inhibition zone (IZ) (Escherichia coli): 25 mm
- inhibition zone (IZ) (Bacillus subtilis): 19 mm

SMILES: Cc1cccc(Nc2nc(SC(=S)Nc3ccccc3)nc(SC(=S)Nc3ccccc3)n2)c1
- inhibition zone (IZ) (Streptococcus pyogenes): 12 mm
- inhibition zone (IZ) (Escherichia coli): 12 mm
- inhibition zone (IZ) (Bacillus subtilis): 15 mm
- inhibition zone (IZ) (Aspergillus niger): 12 mm

SMILES: Cc1cccc(Nc2nc(SC(=S)Nc3ccc(Cl)cc3)nc(SC(=S)Nc3ccc(Cl)cc3)n2)c1
- inhibition zone (IZ) (Streptococcus pyogenes): 18 mm
- inhibition zone (IZ) (Escherichia coli): 15 mm
- inhibition zone (IZ) (Bacillus subtilis): 18 mm
- inhibition zone (IZ) (Aspergillus niger): 17 mm

SMILES: COC1=CC(=O)C[C@@H](C)[C@]12Oc1c(Cl)c(OC)cc(OC)c1C2=O [GRISEOFULVIN]
- inhibition zone (IZ) (Aspergillus niger): 20 mm

SMILES: COc1ccc(NC(=S)Sc2nc(Nc3cccc(C)c3)nc(SC(=S)Nc3ccc(OC)cc3)n2)cc1
- inhibition zone (IZ) (Streptococcus pyogenes): 14 mm
- inhibition zone (IZ) (Escherichia coli): 15 mm
- inhibition zone (IZ) (Bacillus subtilis): 15 mm
- inhibition zone (IZ) (Aspergillus niger): 15 mm

SMILES: Cc1cccc(Nc2nc(Nc3cccc(C)c3)nc(SC(=S)Nc3ccccc3C)n2)c1
- inhibition zone (IZ) (Streptococcus pyogenes): 11 mm
- inhibition zone (IZ) (Escherichia coli): 12 mm
- inhibition zone (IZ) (Bacillus subtilis): 12 mm
- inhibition zone (IZ) (Aspergillus niger): 23 mm

SMILES: CCOc1ccc(NC(=S)Sc2nc(Nc3cccc(C)c3)nc(SC(=S)Nc3ccc(OCC)cc3)n2)cc1
- inhibition zone (IZ) (Streptococcus pyogenes): 15 mm
- inhibition zone (IZ) (Escherichia coli): 16 mm
- inhibition zone (IZ) (Bacillus subtilis): 14 mm
- inhibition zone (IZ) (Aspergillus niger): 12 mm

SMILES: Cc1cccc(Nc2nc(Nc3cccc(C)c3)nc(SC(=S)Nc3ccccc3[N+](=O)[O-])n2)c1
- inhibition zone (IZ) (Streptococcus pyogenes): 14 mm
- inhibition zone (IZ) (Escherichia coli): 15 mm
- inhibition zone (IZ) (Bacillus subtilis): 15 mm
- inhibition zone (IZ) (Aspergillus niger): 16 mm

SMILES: Cc1cccc(Nc2nc(Nc3cccc(C)c3)nc(SC(=S)Nc3ccc(Cl)cc3)n2)c1
- inhibition zone (IZ) (Streptococcus pyogenes): 13 mm
- inhibition zone (IZ) (Escherichia coli): 15 mm
- inhibition zone (IZ) (Bacillus subtilis): 12 mm
- inhibition zone (IZ) (Aspergillus niger): 16 mm

SMILES: CCOc1ccc(NC(=S)Sc2nc(Nc3cccc(C)c3)nc(Nc3cccc(C)c3)n2)cc1
- inhibition zone (IZ) (Streptococcus pyogenes): 13 mm
- inhibition zone (IZ) (Escherichia coli): 14 mm
- inhibition zone (IZ) (Bacillus subtilis): 13 mm
- inhibition zone (IZ) (Aspergillus niger): 18 mm

SMILES: Cc1cccc(Nc2nc(SC(=S)Nc3ccccc3[N+](=O)[O-])nc(SC(=S)Nc3ccccc3[N+](=O)[O-])n2)c1
- inhibition zone (IZ) (Streptococcus pyogenes): 13 mm
- inhibition zone (IZ) (Escherichia coli): 17 mm
- inhibition zone (IZ) (Bacillus subtilis): 14 mm
- inhibition zone (IZ) (Aspergillus niger): 19 mm

SMILES: Cc1cccc(Nc2nc(SC(=S)NN3CCOCC3)nc(SC(=S)NN3CCOCC3)n2)c1
- inhibition zone (IZ) (Streptococcus pyogenes): 14 mm
- inhibition zone (IZ) (Escherichia coli): 12 mm
- inhibition zone (IZ) (Bacillus subtilis): 13 mm
- inhibition zone (IZ) (Aspergillus niger): 13 mm

SMILES: Cc1cccc(NC(=S)Sc2nc(Nc3cccc(C)c3)nc(SC(=S)Nc3cccc(C)c3)n2)c1
- inhibition zone (IZ) (Streptococcus pyogenes): 12 mm
- inhibition zone (IZ) (Escherichia coli): 13 mm
- inhibition zone (IZ) (Bacillus subtilis): 13 mm
- inhibition zone (IZ) (Aspergillus niger): 14 mm

SMILES: COc1ccccc1NC(=S)Sc1nc(Nc2cccc(C)c2)nc(SC(=S)Nc2ccccc2OC)n1
- inhibition zone (IZ) (Streptococcus pyogenes): 11 mm
- inhibition zone (IZ) (Escherichia coli): 15 mm
- inhibition zone (IZ) (Bacillus subtilis): 15 mm
- inhibition zone (IZ) (Aspergillus niger): 14 mm

SMILES: Cc1cccc(Nc2nc(SC(=S)Nc3ccccc3C)nc(SC(=S)Nc3ccccc3C)n2)c1
- inhibition zone (IZ) (Streptococcus pyogenes): 12 mm
- inhibition zone (IZ) (Escherichia coli): 12 mm
- inhibition zone (IZ) (Bacillus subtilis): 19 mm
- inhibition zone (IZ) (Aspergillus niger): 13 mm

SMILES: CCN(CC)C(=S)Sc1nc(Nc2cccc(C)c2)nc(SC(=S)N(CC)CC)n1
- inhibition zone (IZ) (Streptococcus pyogenes): 12 mm
- inhibition zone (IZ) (Escherichia coli): 12 mm
- inhibition zone (IZ) (Bacillus subtilis): 12 mm
- inhibition zone (IZ) (Aspergillus niger): 13 mm

SMILES: Cc1ccc(NC(=S)Sc2nc(Nc3cccc(C)c3)nc(SC(=S)Nc3ccc(C)cc3)n2)cc1
- inhibition zone (IZ) (Streptococcus pyogenes): 13 mm
- inhibition zone (IZ) (Escherichia coli): 13 mm
- inhibition zone (IZ) (Bacillus subtilis): 19 mm
- inhibition zone (IZ) (Aspergillus niger): 20 mm
